System: yeast genes (level of expressed mRNA)
Assay: DNA chip analysis of expressed mRNA of yeast genes after 2 h culture with a toxic chemical substance
Assay type: cell-based, Saccharomyces cerevisiae S288C
Procedure: Yeast (Saccharomyces cerevtisiae S288C (α SUC2mal mel gap2 CUP1)) were cultured at 25° C. on YPD medium (yeast extract 1%, polypepton 2%, glucose 2%). One of toxic chemical substances was added to the cell at logarithmic growth phase, and the cell was further cultured for two hours. Cell was cultured without any chemical substance in the same condition, and was used as control. Concentrations of the chemical substances were defined to inhibit the growth of the yeast but not lead to death.
After the completion of cultivation, the culture was centrifuged to collect the cells. To the cells, sodium acetate buffer (50 mM sodium acetate, 10 mM EDTA, 1% SDS) was added, and the mixture was shaken at 65° C. for five minutes, followed by returning to room temperature, and obtaining the supernatant, which procedure was repeated two times. To the supernatant, ½ amount of a solution of phenol/chloroform was added, and the mixture was centrifuged to give a supernatant, which was added with an equal amount of chloroform, and the mixture was centrifuged to give a supernatant. To the supernatant, an equal amount of isopropanol containing 0.3 M sodium acetate was added, and the mixture was allowed to stand at room temperature for 30 minutes, after which the mixture was centrifuged to give a sediment of the whole RNAs. Seventy % ethanol was added to the sediment, and the mixture was again centrifuged to give a sediment, which was then dried and dissolved in water. mRNA was isolated from the whole RNAs as followings. In view of the fact that a poly A chain is attached to the 3′ terminus of mRNA, a polynucleotide having a poly T structure which was immobilized on the surface of latex beads was used to trap the mRNA, and then the mRNA was washed and eluted with spine column (Oligotex-dT30<Super>mRNA Purification Kit, Takara). Reverse transcription of the mRNA was conducted with a reverse transcriptase (Super Script II Reverse Transcriptase; catalogue No. 18064-014, GibcoBRL) using fluorescence-labeled nucleotides to give cDNAs that were introduced with Cy3-dUTP or Cy5-dUTP during the reverse transcription.
The labeled cDNAs were dissolved in TE buffer (10 mM Tris-HCl/1 mM EDTA, pH8.0), and the solution was dropped on the DNA chip containing the whole genes of yeast (DNA Chip Research Inc. Japan) so that the cDNAs were hybridized on the DNA chip at 65° C. for over 12 hours. The fluoresces intensity of the DNA chip was read with a scanner, and the ratio relative to the fluorescence intensity resulting from the absence of chemical substance was estimated as the following, which is shown in Tables 1 to 9: [formula]
In the Tables, “Intensity” indicated in the rightmost column is a value of the level of expressed mRNA of each gene in control cells as divided by the average level of the expressions of the whole genes.

C=CC=O [(14), acrolein]
1.9: The level of expressed mRNA in the presence of chemical substance/absence: YNL181W (gene YNL181W) | The level of expressed mRNA in the presence of chemical substance/absence: YNL265C (gene YNL265C)
1.0: The level of expressed mRNA in the presence of chemical substance/absence: YML118W (gene YML118W) | level of expressed mRNA in the presence of chemical substance/in its absence (gene YMR105C) | The level of expressed mRNA in the presence of chemical substance/absence: YMR258C (gene YMR258C) | level of expressed mRNA in the presence of chemical substance/in its absence (gene YNL012W) | level of expressed mRNA in the presence of chemical substance/in its absence (gene YNL130C) | The level of expressed mRNA in the presence of chemical substance/absence: YNL191W (gene YNL191W) | The level of expressed mRNA in the presence of chemical substance/absence: YNL212W (gene YNL212W) | level of expressed mRNA in the presence of chemical substance/in its absence (gene YNR019W) | The level of expressed mRNA in the presence of chemical substance/absence: YNR051C (gene YNR051C) | level of expressed mRNA in the presence of chemical substance/in its absence (gene YNR059W) | The level of expressed mRNA in the presence of chemical substance/absence: YOR022C (gene YOR022C)
3.0: The level of expressed mRNA in the presence of chemical substance/absence: YNL194C (gene YNL194C)
1.3: The level of expressed mRNA in the presence of chemical substance/absence: YMR115W (gene YMR115W) | level of expressed mRNA in the presence of chemical substance/in its absence (gene YNL037C) | The level of expressed mRNA in the presence of chemical substance/absence: YOL026C (gene YOL026C) | level of expressed mRNA in the presence of chemical substance/in its absence (gene YOR130C) | The level of expressed mRNA in the presence of chemical substance/absence: YOR253W (gene YOR253W)
1.6: level of expressed mRNA in the presence of chemical substance/in its absence (gene YMR189W)
1.2: The level of expressed mRNA in the presence of chemical substance/absence: YMR071C (gene YMR071C) | level of expressed mRNA in the presence of chemical substance/in its absence (gene YNL322C) | level of expressed mRNA in the presence of chemical substance/in its absence (gene YNR002C) | level of expressed mRNA in the presence of chemical substance/in its absence (gene YOL126C) | level of expressed mRNA in the presence of chemical substance/in its absence (gene YOL157C)
1.4: The level of expressed mRNA in the presence of chemical substance/absence: YML079W (gene YML079W) | level of expressed mRNA in the presence of chemical substance/in its absence (gene YML110C) | The level of expressed mRNA in the presence of chemical substance/absence: YNL253W (gene YNL253W)
0.8: level of expressed mRNA in the presence of chemical substance/in its absence (gene YMR272C) | The level of expressed mRNA in the presence of chemical substance/absence: YNL026W (gene YNL026W) | level of expressed mRNA in the presence of chemical substance/in its absence (gene YNL045W) | The level of expressed mRNA in the presence of chemical substance/absence: YNL058C (gene YNL058C)
1.1: The level of expressed mRNA in the presence of chemical substance/absence: YMR068W (gene YMR068W) | The level of expressed mRNA in the presence of chemical substance/absence: YMR160W (gene YMR160W) | The level of expressed mRNA in the presence of chemical substance/absence: YNL063W (gene YNL063W) | level of expressed mRNA in the presence of chemical substance/in its absence (gene YNL106C)
0.6: The level of expressed mRNA in the presence of chemical substance/absence: YNL200C (gene YNL200C) | The level of expressed mRNA in the presence of chemical substance/absence: YOL030W (gene YOL030W)
2.2: The level of expressed mRNA in the presence of chemical substance/absence: YML041C (gene YML041C)
0.9: level of expressed mRNA in the presence of chemical substance/in its absence (gene YNL104C) | level of expressed mRNA in the presence of chemical substance/in its absence (gene YNL169C) | The level of expressed mRNA in the presence of chemical substance/absence: YNL176C (gene YNL176C) | level of expressed mRNA in the presence of chemical substance/in its absence (gene YNL231C) | level of expressed mRNA in the presence of chemical substance/in its absence (gene YNR033W) | The level of expressed mRNA in the presence of chemical substance/absence: YOR087W (gene YOR087W) | level of expressed mRNA in the presence of chemical substance/in its absence (gene YOR136W) | The level of expressed mRNA in the presence of chemical substance/absence: YOR138C (gene YOR138C)
1.8: level of expressed mRNA in the presence of chemical substance/in its absence (gene YMR271C)
1.5: The level of expressed mRNA in the presence of chemical substance/absence: YMR114C (gene YMR114C) | The level of expressed mRNA in the presence of chemical substance/absence: YNL276C (gene YNL276C) | level of expressed mRNA in the presence of chemical substance/in its absence (gene YOL058W) | level of expressed mRNA in the presence of chemical substance/in its absence (gene YOL153C) | The level of expressed mRNA in the presence of chemical substance/absence: YOR155C (gene YOR155C)
0.7: level of expressed mRNA in the presence of chemical substance/in its absence (gene YMR296C) | level of expressed mRNA in the presence of chemical substance/in its absence (gene YOL143C) | level of expressed mRNA in the presence of chemical substance/in its absence (gene YOR099W)
0.4: The level of expressed mRNA in the presence of chemical substance/absence: YOR088W (gene YOR088W)
